Assay type in all cases: physicochemical
Data set [1] in a line: Micronisation by jet milling.
Data set [2] in a line: Stability of blend with lactose monohydrate on storage. The settings on record: stored under aggressive conditions of heat and humidity.
The nature of data set [3]: Hydrate screen (slurry of form B in aqueous pyridine). The settings on record: slurried 2 weeks at 4° C., room temperature (~22° C.) and 40° C. in aqueous pyridine containing 50%, 75% and 90% water. The procedure:
A hydrate screen was conducted by slurrying samples of form B for 2 weeks at 4° C., room temperature (˜22° C.) and 40° C. in aqueous pyridine. The three solvent systems selected contained 50%, 75% and 90% water.

Data set [4] can be described thus: Low energy screen (slurry of form B in solvents, PXRD analysis). The settings on record: slurried for 2 weeks in various solvents (incl. dimethylacetamide, N-methyl-Pyrrolidine, pyridine) at 4° C., room temperature (~22° C.) and 40° C.; analysis after 2 weeks and 4 months. How it is done: A low energy screen was carried using N-[3-tert-butyl-1-(3-chloro-4-hydroxyphenyl)-1H-pyrazol-5-yl]-N′-{2-[(3-{2-[(2-hydroxyethyl)sulfanyl]phenyl}[1,2,4]triazolo[4,3-a]pyridin-6-yl)sulfanyl]benzyl}urea form B to investigate whether it is the lowest energy form of the compound. Samples of form B were slurried for 2 weeks in various solvents at 4° C., room temperature (˜22° C.) and 40° C. Analysis of wet and dried slurries was carried out at after 2 weeks and 4 months using PXRD.

Another data set in a line: Hygroscopicity.

`CC(C)(C)c1cc(NC(=O)NCc2ccccc2Sc2ccc3nnc(-c4ccccc4SCCO)n3c2)n(-c2ccc(O)c(Cl)c2)n1` [form B, N-[3-tert-butyl-1-(3-chloro-4-hydroxyphenyl)-1H-pyrazol-5-yl]-N′-{2-[(3-{2-[(2-hydroxyethyl)sulfanyl]phenyl}[1,2,4]triazolo[4,3-a]pyridin-6-yl)sulfanyl]benzyl}urea]: in data set [1], the “change in crystalline form on micronisation” value was “without inducing any change in crystalline form”. In data set [2], the “stability when blended with lactose monohydrate” value is “good stability”. Further, in data set [3], the “change in crystalline form” value is “No change in crystalline form” and the hydrated forms observed result is recorded as “No hydrated forms were observed”. Also, the “crystalline form after slurrying (PXRD of wet and dried slurries)” value in data set [4] is listed as “remained as Form B”. Moreover, the hygroscopicity result in “Hygroscopicity” is “essentially non-hygroscopic”.

The values are drawn from patent US8222273B2, “Polymorphic form of a [1,2,4]triazole[4,3-A] pyridine derivative inflammatory diseases” (Pfizer Limited, priority 2008, dated 2012).
